Consider two compounds from patent US20080019961A1, “Hedgehog signaling pathway antagonist cancer treatment” (Regents of the University of Michigan, priority 2006, published 2008).

Read-outs that look alike come from different tables or passages of the source. Square brackets hold non-standard residues; d marks the D form. Peptide text beside a SMILES is read from it. * marks the point of attachment. Nle = CCCC[C@H](N)C(=O)O; Cbz = O=C(OCc1ccccc1)*

Holding throughout (type): cell-based, human
Experiment [1] concerns mammary stem/progenitor cells in mammospheres. In words: Primary and secondary mammosphere formation (in vitro self-renewal assay).
For a further experiment, the system named is Bmi-1 mRNA. In words: Bmi-1 mRNA in mammospheres by real-time RT-PCR. Conditions: for block of Shh-induced Bmi-1 expression: Shh with Cyclopamine or GSI.
The test system of experiment [2] is PTCH1, Gli1, Gli2 and HES1 mRNA. In words: Hh and Notch pathway gene mRNA in mammospheres by real-time RT-PCR. The note with it: for block of Shh-induced PTCH1, Gli1, Gli2 and HES1 expression: 3 μg/ml Shh with 300 nM Cyclopamine or 5 μM GSI; for block of DSL-induced HES1, PTCH1, Gli1 and Gli2 expression: 10 μM DSL with 5 μM GSI or 300 nM Cyclopamine. (In general: Quantitative PCR measures a nucleic acid by following its amplification.)
Method: Single cells from epithelial organoids were plated in 6-well ultra-low attachment plates (Coming) at a density of 100,000 viable cells/ml. Cells were cultured in 2 ml of a serumfree MEBM per well. […] Cells were incubated for 7 days in the presence of different treatments as follows. For the treatment with Hedgehog agonists and antagonist, Shh was used at 1.5 μg/ml, 3 μg/ml and 6 μg/ml in the presence or absence of 300 riM of CP or 5 μM of GSI. CP was used at 150 nM, 300 nM and 600 nM concentrations, and the control was 12% 1×PBS with 0.06% BSA. For the treatment with Notch agonists and antagonist, DSL was used at 10 μM in the presence or absence of 5 μM of GSI or 300 nM of CP, and the controls consisted of 10 μM of scrambled Notch peptide. All treatments were continued for 10 days, with agonists and antagonists added every two or three days when medium was changed.
Mammospheres were then collected for in vitro self-renewal assays and Real-time quantitative RT-PCR. For reverse-transcriptase reactions, 1 μg of total RNA from mammospheres or differentiated cells on collagen-coated plates was reverse transcribed with 200 U M-MLV Reverse Transcriptase (GibcoBRL) at 42° C. for 1 hour in the presence of 5 mM each of dATP, dCTP, dGTP and dTTP, 4 μl 5× 1 st strand buffer (GibcoBRL), 0.01M DDT, 1 U RNA Guard RNase inhibitor (GibcoBRL), and 2.5 µM random primers in a total volume of 20 μl. The reaction was terminated by heating to 95° C. for 3 minutes. Real-time quantitative PCR (TaqMan™) primers and probes were purchased from AppliedBiosytems as Assays-on-Demand™ Gene Expression Products. Real-time PCRs were performed following the supplier's instructions (Applied Biosystems). 20 μl of PCR mixture contained 10 μl of 2× Taqman™ universal PCR Master Mix, 1 μl of 20× working stock of gene expression assay mix, and 50 ng of RNA converted cDNA. PCR was performed in a ABI PRISM® 7900HT sequence detection system with 384-Well block module and automation accessory (Applied Biosystems) by incubation at 50° C. for 2 min and then 95° C. for 10 min followed by 40 amplification cycles (15 s of denaturation at 95° C. and 1 min of hybridization and elongation at 60° C.). The reaction for each sample was performed in quadruplicates. Fluorescence of the PCR products was detected by the same apparatus. The number of cycles that it takes for amplification plot to reach the threshold limit, the Ct-value was used for quantification. RPLP0 was used for normalization.
In order to determine whether activation of the Notch pathway could affect Hh targets, Notch signaling was activated by utilizing the DSL ligand which binds to all Notch receptors (Dontu et al., 2004).

The subject of experiment [3] is mammosphere branching morphogenesis. Description: Mammosphere branching morphogenesis in 3-D Matrigel culture. The note with it: 300 nM Cyclopamine.
Method: Briefly, 30 mammospheres were suspended in 1 ml of BD Matrigel™ Matrix (Cat. 354234, BD Biosciences, Palo Alto, Calif.) and Ham's F-12 medium (BioWbittaker) with 5% serum at a ratio of 1:1, and plated 1 ml of the mixture into one well of 24-well cold plates and each group of mammospheres was performed in quadruplicates. After the matrigel was solidified, 1 ml of Ham's F-12 medium (BioWhittaker) with 5% serum was added to the top of the matrigel. The experiments were repeated with mammospheres derived from at least three different patients.

Consider `CCCC[C@@H](C=O)NC(=O)[C@H](CC(C)C)NC(=O)[C@H](CC(C)C)NC(=O)OCc1ccccc1` [GSI, Z-Leu-Leu-Nle-CHO] (Cbz-Leu-Leu-[Nle]-aldehyde), for which the “block of the Shh effect on mammary stem cell self-renewal” value in experiment [1] (3 μg/ml Shh with 300 nM Cyclopamine or 5 μM GSI) is “did not block”. Besides, the “block of DSL-stimulated mammary stem cell self-renewal” value in experiment [1] (10 μM DSL with 5 μM GSI or 300 nM Cyclopamine) is given as “blocked”. Besides, the “block of DSL-induced Bmi-1 expression” value in the experiment with Bmi-1 mRNA (DSL with GSI or Cyclopamine) is reported as “completely blocked”. In addition, the “block of Shh-induced Bmi-1 expression” value in the experiment with Bmi-1 mRNA was “not”. For the same compound, in experiment [2], the “block of Shh-induced PTCH1, Gli1, Gli2 and HES1 expression” value is “not”; the “block of DSL-induced HES1, PTCH1, Gli1 and Gli2 expression” value is recorded as “completely blocked”.
Consider `CC1=C2C[C@H]3[C@@H](CC=C4C[C@@H](O)CC[C@@]43C)[C@@H]2CC[C@]12O[C@@H]1C[C@H](C)CN[C@H]1[C@H]2C` [Cyclopamine], for which, in experiment [1], the “Cyclopamine inhibition of primary mammosphere formation on addition of Shh” value is listed as “reversal of inhibition”, the “Cyclopamine inhibition of secondary mammosphere formation on addition of Shh” value was “reversed”, the “block of DSL-stimulated mammary stem cell self-renewal” value is “not” and the “block of the Shh effect on mammary stem cell self-renewal” value is “blocked”. In addition, in experiment [1], the “decrease of average cell number in primary mammospheres vs control” value was found to be 51%, the “decrease of average cell numbers per secondary mammosphere” value stood at 56%, the “decrease of primary mammosphere formation vs control” value is on record as 45% and the “decrease of secondary mammospheres vs control” value stood at 54%. In addition, in experiment [1], the “effect of Cyclopamine on the effects of Gli1 or Gli2 overexpression” value is on record as “unaffected” and the “effects on mammosphere formation, lowest dose” value was “no effects”. In experiment [3], the “effect on branch formation” value is given as “almost completely blocked branch formation”. Further, the “block of Shh-induced Bmi-1 expression” value in the experiment on Bmi-1 mRNA is on record as “blocked”. Moreover, in experiment [2], the “block of Shh-induced PTCH1, Gli1, Gli2 and HES1 expression” value was “partially blocked”; the “block of DSL-induced HES1, PTCH1, Gli1 and Gli2 expression” value is “partially blocked and not”.
